Experimental data published in patent US20220016061A1, “Preparation Stabilized by Means of Nonaqueous Solvent” (MEDRx Co., Ltd., priority 2018, published 2022).
Where a name gives a salt, the structure may show the parent alone.

Key:
[1] = Assessment of stability of baclofen hydrochloride solution (Example 3); type: physicochemical; details: water, NMP, propylene glycol, glycerin; 50° C.
Experimental: Baclofen (10.0 g) was dissolved in 10% hydrochloric acid (20 g), the solvent in the prepared solution was frozen, and then the frozen product was dried in a lyophilizer overnight to give baclofen hydrochloride.
The resulting baclofen hydrochloride was dissolved in water, NMP (N-methylpyrrolidone), propylene glycol or glycerin to prepare each solution comprising baclofen hydrochloride in an amount of 0.25% by weight. Each of the prepared solutions was stored at 50° C. and the contexts of baclofen and ring products thereof in the solutions were measured after 1 and 2 weeks of the storage to assess the stability of baclofen.

[2] = Solubility of baclofen in solvents; type: physicochemical
Description: The concentration of baclofen was insufficient to be used as an external preparation.

| stability when dissolved in the solvents [1] | solubility in 10% hydrochloric acid ([2]; 10% hydrochloric acid) | solubility in lactic acid ([2]; lactic acid) | solubility in water ([2]; water) | SMILES |
| --- | --- | --- | --- | --- |
| stable | – | – | – | NCC(CC(=O)O)c1ccc(Cl)cc1 (stereo not shown) [Baclofen hydrochloride] |
| – | about 39% | about 33% | about 0.27% | NCC(CC(=O)O)c1ccc(Cl)cc1 (stereo not shown) [baclofen, 4-amino-3-(4-chloropehnyl)butanoic acid] |
